# Read-outs that look alike come from different tables or passages of the source.
# How the values were obtained:
# human HDAC6 = target: T1, human HDAC6 (Homo sapiens, UniProt Q9UBN7); assay: IC50 of the test inhibitor against HDAC6 (10-dose enzymatic assay); assay type: biochemical; parameters: purchased BPS Bioscience 50006; details: for activity at 0.0003 µM: 0.0003 µM compound; for activity at 0.001 µM: 0.001 µM compound; for activity at 0.003 µM: 0.003 µM compound; for activity at 0.01 µM: 0.01 µM compound; for activity at 0.03 µM: 0.03 µM compound; for activity at 0.1 µM: 0.1 µM compound; for activity at 0.3 µM: 0.3 µM compound; for activity at 1 µM: 1 µM compound; for activity at 3 µM: 3 µM compound; for activity at 10 µM: 10 µM compound
# T1 sequence (Q9UBN7 1-1215): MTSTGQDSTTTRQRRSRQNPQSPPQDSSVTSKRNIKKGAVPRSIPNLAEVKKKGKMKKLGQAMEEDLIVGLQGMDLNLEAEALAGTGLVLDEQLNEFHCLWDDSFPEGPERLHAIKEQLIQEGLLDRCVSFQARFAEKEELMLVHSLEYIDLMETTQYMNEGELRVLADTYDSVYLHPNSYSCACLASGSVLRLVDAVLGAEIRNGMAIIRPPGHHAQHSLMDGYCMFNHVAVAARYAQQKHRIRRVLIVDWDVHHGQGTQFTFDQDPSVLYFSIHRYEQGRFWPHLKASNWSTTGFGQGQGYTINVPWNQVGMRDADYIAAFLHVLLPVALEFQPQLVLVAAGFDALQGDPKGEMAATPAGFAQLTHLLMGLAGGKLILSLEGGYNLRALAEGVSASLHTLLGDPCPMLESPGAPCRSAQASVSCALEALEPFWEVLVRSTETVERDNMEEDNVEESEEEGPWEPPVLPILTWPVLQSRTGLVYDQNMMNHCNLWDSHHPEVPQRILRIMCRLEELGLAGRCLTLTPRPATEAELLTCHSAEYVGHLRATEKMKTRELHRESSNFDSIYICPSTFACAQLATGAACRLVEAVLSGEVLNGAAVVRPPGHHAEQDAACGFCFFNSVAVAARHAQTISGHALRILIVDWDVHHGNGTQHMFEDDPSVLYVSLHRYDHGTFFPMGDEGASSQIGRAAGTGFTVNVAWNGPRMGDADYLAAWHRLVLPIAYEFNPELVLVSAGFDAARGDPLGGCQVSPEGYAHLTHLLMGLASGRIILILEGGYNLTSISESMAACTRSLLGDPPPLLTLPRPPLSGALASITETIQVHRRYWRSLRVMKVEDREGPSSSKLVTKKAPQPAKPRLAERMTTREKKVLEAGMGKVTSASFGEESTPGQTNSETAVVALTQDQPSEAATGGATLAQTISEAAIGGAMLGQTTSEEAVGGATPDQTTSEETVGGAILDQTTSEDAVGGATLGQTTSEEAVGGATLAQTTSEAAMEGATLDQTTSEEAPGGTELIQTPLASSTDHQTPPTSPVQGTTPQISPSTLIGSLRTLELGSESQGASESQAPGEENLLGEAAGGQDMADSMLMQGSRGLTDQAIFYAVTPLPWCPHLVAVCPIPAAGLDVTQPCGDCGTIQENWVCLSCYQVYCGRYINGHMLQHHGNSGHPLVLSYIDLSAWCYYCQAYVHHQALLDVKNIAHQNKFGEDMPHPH
# human HDAC10 = target: T2, human HDAC10 (Homo sapiens, UniProt Q969S8); assay: HDAC10 inhibitor enzymatic assay, % inhibition at fixed concentration; details: read-out: %inhibition of HDACs at 10µM of test compound HDAC10
# T2 sequence (Q969S8 1-669): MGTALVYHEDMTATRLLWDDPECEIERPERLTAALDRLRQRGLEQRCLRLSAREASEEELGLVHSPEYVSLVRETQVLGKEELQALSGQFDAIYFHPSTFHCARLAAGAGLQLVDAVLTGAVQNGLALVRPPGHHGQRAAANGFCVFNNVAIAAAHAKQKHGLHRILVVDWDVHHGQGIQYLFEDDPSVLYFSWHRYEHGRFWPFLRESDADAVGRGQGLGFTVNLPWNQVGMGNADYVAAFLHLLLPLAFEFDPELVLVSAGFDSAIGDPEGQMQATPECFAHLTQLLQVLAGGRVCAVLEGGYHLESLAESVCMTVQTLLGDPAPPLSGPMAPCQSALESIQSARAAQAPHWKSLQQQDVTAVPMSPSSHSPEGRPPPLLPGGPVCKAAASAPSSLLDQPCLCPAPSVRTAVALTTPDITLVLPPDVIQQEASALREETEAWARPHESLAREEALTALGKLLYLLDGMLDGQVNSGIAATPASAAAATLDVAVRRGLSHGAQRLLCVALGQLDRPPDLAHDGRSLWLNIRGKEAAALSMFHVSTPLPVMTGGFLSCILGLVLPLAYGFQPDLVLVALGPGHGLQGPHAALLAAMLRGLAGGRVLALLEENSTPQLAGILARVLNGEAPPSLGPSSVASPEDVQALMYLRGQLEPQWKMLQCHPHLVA
# [1] = Repeat1, read-out: HDAC6 % Activity Repeat1
# [2] = Repeat2, read-out: HDAC6 % Activity Repeat2
smiles,measurement,setting,value
"O=C(CCCSc1nc2ccccc2n1Cc1ccccc1)NO [Compound 10a, 4-((1-benzyl-1H-benzo[d]imidazol-2-yl)thio)-N-hydroxybutanamide]",activity at 0.0003 µM,human HDAC6; [1],100%
same,activity at 0.0003 µM,human HDAC6; [2],99%
same,activity at 0.001 µM,human HDAC6; [1],98%
same,activity at 0.001 µM,human HDAC6; [2],100%
same,activity at 0.003 µM,human HDAC6; [1],100%
same,activity at 0.003 µM,human HDAC6; [2],95%
same,activity at 0.01 µM,human HDAC6; [1],95%
same,activity at 0.01 µM,human HDAC6; [2],100%
same,activity at 0.03 µM,human HDAC6; [1],93%
same,activity at 0.03 µM,human HDAC6; [2],94%
same,activity at 0.1 µM,human HDAC6; [1],86%
same,activity at 0.1 µM,human HDAC6; [2],82%
same,activity at 0.3 µM,human HDAC6; [1],61%
same,activity at 0.3 µM,human HDAC6; [2],63%
same,activity at 1 µM,human HDAC6; [1],33%
same,activity at 1 µM,human HDAC6; [2],33%
same,activity at 3 µM,human HDAC6; [1],13%
same,activity at 3 µM,human HDAC6; [2],14%
same,activity at 10 µM,human HDAC6; [1],5%
same,activity at 10 µM,human HDAC6; [2],5%
same,inhibition at 10 µM,human HDAC10,28%
